Results reported in PubChem BioAssay (NCI).
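How tested: cells in 96-well plates exposed to compound for 48 hours at five concentrations. The concentration for full growth arrest is given as TGI.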

Legend:
Assay in all cases: inhibition of tumour cell growth, NCI panel, 48 h
[1] = test system: 786-0 renal
[2] = test system: A498 renal
[3] = test system: A549 NSCLC
[4] = test system: ACHN renal
[5] = test system: CCRF-CEM leukemia
[6] = test system: COLO 205 colon
[7] = test system: DLD-1 colon
[8] = test system: DMS 114 small cell lung
[9] = test system: DMS 273 small cell lung
[10] = test system: EKVX NSCLC
[11] = test system: HCT-116 colon
[12] = test system: HCT-15 colon
[13] = test system: HL-60(TB) leukemia
[14] = test system: HOP-18 NSCLC
[15] = test system: HOP-62 NSCLC
[16] = test system: HOP-92 NSCLC
[17] = test system: HT29 colon
[18] = test system: IGROV1 ovarian
[19] = test system: K-562 leukemia
[20] = test system: KM12 colon
[21] = test system: KM20L2 colon
[22] = test system: LOX IMVI melanoma
[23] = test system: LXFL 529 NSCLC
[24] = test system: M14 melanoma
[25] = test system: M19-MEL melanoma
[26] = test system: MOLT-4 leukemia
[27] = test system: NCI-H226 lung
[28] = test system: NCI-H23 lung
[29] = test system: NCI-H460 lung
[30] = test system: NCI-H522 lung
[31] = test system: OVCAR-4 ovarian
[32] = test system: OVCAR-5 ovarian
[33] = test system: OVCAR-8 ovarian
[34] = test system: RPMI-8226 leukemia
[35] = test system: SF-268 CNS
[36] = test system: SF-295 CNS
[37] = test system: SF-539 CNS
[38] = test system: SK-MEL-28 melanoma
[39] = test system: SK-MEL-5 melanoma
[40] = test system: SN12C renal
[41] = test system: SNB-19 CNS
[42] = test system: SNB-75 CNS
[43] = test system: SNB-78 CNS
[44] = test system: SR leukemia
[45] = test system: SW-620 colon
[46] = test system: U251 CNS
[47] = test system: UACC-257 melanoma
[48] = test system: UACC-62 melanoma
[49] = test system: BT-549 breast
[50] = test system: CAKI-1 renal
[51] = test system: DU-145 prostate
[52] = test system: HCC-2998 colon
[53] = test system: HS 578T breast
[54] = test system: MALME-3M melanoma
[55] = test system: MCF7 breast
[56] = test system: MDA-MB-231 breast
[57] = test system: MDA-MB-435
[58] = test system: MDA-N
[59] = test system: NCI/ADR-RES ovarian
[60] = test system: OVCAR-3 ovarian
[61] = test system: PC-3 prostate
[62] = test system: RXF 393 renal
[63] = test system: SK-MEL-2 melanoma
[64] = test system: SK-OV-3 ovarian
[65] = test system: T-47D breast
[66] = test system: TK-10 renal
[67] = test system: UO-31 renal

COc1ccc(/C=C/C(=O)c2cc(C(=O)O)c(OC)cc2OC)cc1OC
TGI [1]: > 100 µM
TGI [2]: > 100 µM
TGI [3]: > 100 µM
TGI [4]: > 100 µM
TGI [5]: > 100 µM
TGI [6]: > 100 µM
TGI [7]: > 100 µM
TGI [8]: > 100 µM
TGI [9]: > 100 µM
TGI [10]: > 100 µM
TGI [11]: > 100 µM
TGI [12]: > 100 µM
TGI [13]: > 100 µM
TGI [14]: > 100 µM
TGI [15]: > 100 µM
TGI [16]: > 100 µM
TGI [17]: > 100 µM
TGI [18]: > 100 µM
TGI [19]: > 100 µM
TGI [20]: > 100 µM
TGI [21]: > 100 µM
TGI [22]: > 100 µM
TGI [23]: > 100 µM
TGI [24]: > 100 µM
TGI [25]: > 100 µM
TGI [26]: > 100 µM
TGI [27]: > 100 µM
TGI [28]: > 100 µM
TGI [29]: > 100 µM
TGI [30]: > 100 µM
TGI [31]: > 100 µM
TGI [32]: > 100 µM
TGI [33]: > 100 µM
TGI [34]: > 100 µM
TGI [35]: > 100 µM
TGI [36]: > 100 µM
TGI [37]: > 100 µM
TGI [38]: > 100 µM
TGI [39]: > 100 µM
TGI [40]: > 100 µM
TGI [41]: > 100 µM
TGI [42]: > 100 µM
TGI [43]: > 100 µM
TGI [44]: > 100 µM
TGI [45]: > 100 µM
TGI [46]: > 100 µM
TGI [47]: > 100 µM
TGI [48]: > 100 µM

CCCCCCCCCCCCCCCC(=O)Nc1ccn(C2OC(CO)C(O)C2O)c(=O)n1 (centres undefined)
TGI [1]: > 100 µM
TGI [2]: > 100 µM
TGI [3]: > 100 µM
TGI [4]: 99.4 µM
TGI [49]: > 100 µM
TGI [50]: > 100 µM
TGI [5]: 7.28 µM
TGI [6]: > 100 µM
TGI [7]: > 100 µM
TGI [8]: > 100 µM
TGI [9]: > 100 µM
TGI [51]: > 50.3 µM
TGI [10]: > 100 µM
TGI [52]: > 100 µM
TGI [11]: > 100 µM
TGI [12]: > 100 µM
TGI [13]: 43.3 µM
TGI [14]: > 100 µM
TGI [15]: > 88 µM
TGI [16]: 85.5 µM
TGI [53]: > 91.4 µM
TGI [17]: > 100 µM
TGI [18]: > 100 µM
TGI [19]: > 100 µM
TGI [20]: > 100 µM
TGI [21]: > 100 µM
TGI [22]: 38 µM
TGI [23]: > 100 µM
TGI [24]: 32.5 µM
TGI [25]: > 100 µM
TGI [54]: > 100 µM
TGI [55]: > 100 µM
TGI [56]: > 100 µM
TGI [57]: > 100 µM
TGI [58]: > 100 µM
TGI [26]: 17.3 µM
TGI [27]: > 100 µM
TGI [28]: 81.5 µM
TGI [29]: > 65.6 µM
TGI [30]: > 79.7 µM
TGI [59]: > 100 µM
TGI [60]: > 100 µM
TGI [31]: > 100 µM
TGI [32]: > 100 µM
TGI [33]: > 100 µM
TGI [61]: > 100 µM
TGI [34]: > 100 µM
TGI [62]: > 97.2 µM
TGI [35]: > 100 µM
TGI [36]: > 100 µM
TGI [37]: > 100 µM
TGI [63]: > 100 µM
TGI [38]: > 100 µM
TGI [39]: > 100 µM
TGI [64]: > 100 µM
TGI [40]: > 100 µM
TGI [41]: > 80.8 µM
TGI [42]: > 90.4 µM
TGI [43]: > 100 µM
TGI [44]: 62.7 µM
TGI [45]: > 100 µM
TGI [65]: > 100 µM
TGI [66]: > 100 µM
TGI [46]: > 100 µM
TGI [47]: > 100 µM
TGI [48]: > 100 µM
TGI [67]: > 43.9 µM

COc1cc2c(cc1O)[C@@]1(Cc3ccc(OC)c(OC)c3)CCC(=O)N1CC2
TGI [1]: > 100 µM
TGI [2]: > 100 µM
TGI [3]: > 100 µM
TGI [4]: > 100 µM
TGI [50]: > 100 µM
TGI [5]: > 100 µM
TGI [6]: > 100 µM
TGI [7]: > 100 µM
TGI [8]: > 100 µM
TGI [9]: > 100 µM
TGI [10]: > 100 µM
TGI [52]: > 100 µM
TGI [11]: > 100 µM
TGI [12]: > 100 µM
TGI [13]: > 100 µM
TGI [14]: > 100 µM
TGI [15]: > 100 µM
TGI [16]: 92.4 µM
TGI [17]: > 100 µM
TGI [18]: > 100 µM
TGI [19]: > 100 µM
TGI [20]: > 100 µM
TGI [21]: > 100 µM
TGI [22]: > 100 µM
TGI [23]: > 100 µM
TGI [24]: > 100 µM
TGI [25]: > 100 µM
TGI [54]: > 100 µM
TGI [26]: > 100 µM
TGI [27]: > 100 µM
TGI [28]: > 100 µM
TGI [29]: > 100 µM
TGI [60]: > 100 µM
TGI [31]: > 100 µM
TGI [32]: > 100 µM
TGI [33]: > 100 µM
TGI [34]: > 100 µM
TGI [62]: > 100 µM
TGI [35]: > 100 µM
TGI [36]: > 100 µM
TGI [37]: > 100 µM
TGI [38]: > 100 µM
TGI [39]: > 100 µM
TGI [40]: > 100 µM
TGI [41]: > 100 µM
TGI [42]: > 100 µM
TGI [43]: > 100 µM
TGI [44]: > 100 µM
TGI [66]: > 100 µM
TGI [47]: > 100 µM
TGI [48]: > 100 µM
TGI [67]: > 100 µM

CC(=O)NC(CCCN(Cc1ccccc1)C(=O)NCCCl)C(=O)NCc1ccccc1 (centres undefined)
TGI [1]: > 100 µM
TGI [2]: > 100 µM
TGI [3]: > 100 µM
TGI [4]: > 100 µM
TGI [50]: > 100 µM
TGI [5]: > 100 µM
TGI [6]: > 100 µM
TGI [7]: > 100 µM
TGI [8]: > 100 µM
TGI [9]: > 100 µM
TGI [10]: > 100 µM
TGI [52]: > 100 µM
TGI [11]: > 100 µM
TGI [12]: > 100 µM
TGI [13]: > 100 µM
TGI [14]: > 100 µM
TGI [15]: > 100 µM
TGI [16]: > 100 µM
TGI [17]: > 100 µM
TGI [18]: > 100 µM
TGI [19]: > 100 µM
TGI [20]: > 100 µM
TGI [21]: > 100 µM
TGI [22]: > 100 µM
TGI [23]: > 100 µM
TGI [24]: > 100 µM
TGI [25]: > 100 µM
TGI [54]: > 100 µM
TGI [26]: > 100 µM
TGI [27]: > 100 µM
TGI [28]: > 100 µM
TGI [29]: > 100 µM
TGI [30]: > 100 µM
TGI [60]: > 100 µM
TGI [31]: > 100 µM
TGI [32]: > 100 µM
TGI [33]: > 100 µM
TGI [34]: > 100 µM
TGI [62]: > 100 µM
TGI [35]: > 100 µM
TGI [36]: > 100 µM
TGI [37]: > 100 µM
TGI [63]: > 100 µM
TGI [38]: > 100 µM
TGI [39]: > 100 µM
TGI [64]: > 100 µM
TGI [40]: > 100 µM
TGI [41]: > 100 µM
TGI [42]: > 100 µM
TGI [43]: > 100 µM
TGI [44]: > 100 µM
TGI [45]: > 100 µM
TGI [66]: > 100 µM
TGI [46]: > 100 µM
TGI [47]: > 100 µM
TGI [48]: > 100 µM
TGI [67]: > 100 µM
